Binding rate and IC50 data for 14 compounds are collected here from patent US12673041B2, “4-aminobut-2-enamide derivatives and salt thereof” (TAIHO PHARMACEUTICAL CO., LTD., priority 2019, dated 2026).

Experiment [1] has as its target Gppcp-bound recombinant K-Ras4B G12C mutant protein (amino acids 1-169, C51S/C80L/C118S) (Homo sapiens, UniProt P01116, C118S/C51S/C80L/G12C). Kind of experiment: KRASG12C binding assay (LC-MS compound binding rate). As to conditions: test compound final concentration 0.5 μM, 25° C., 1 hour. On the procedure:
As test compounds for the KRASG12C binding assay, the compounds obtained in the “Preparation of Compounds” section were used. Sample solutions each containing a test compound were prepared in the form of a 10 mM DMSO solution.
Gppcp-bound recombinant K-Ras4B G12C mutant protein (amino acids 1-169, C51S/C80L/C118S, SEQ ID NO:1) was diluted with a buffer (1×TBS, 0.1 mM TCEP, 0.25 mM MgCl2, 50 μM Gppcp) to prepare a 50 nM protein solution. K-Ras4B is the major splicing variant of K-Ras. Amino acid sequence of residues 1 to 150 including the compounds' binding region of K-Ras4B is exactly same as that of K-Ras4A, the other splicing variant (Oncotarget. 2016 Jul. 19; 7(29): 46717-46733). A sample solution containing 10 mM test compound was diluted ten-fold with DMSO to make a 1 mM sample solution, and then diluted twenty-fold with DMSO to make a 50 μM sample solution. 1 μL of a 50 μM sample solution was added to 100 μL of a 50 nM protein solution to adjust the final concentration of a test compound to be 0.5 μM in the mixture. The mixtures were stored in an incubator at 25° C. for 1 hour, and 10 μL of a 1×TBS solution containing 2% formic acid was added to stop the reaction, followed by LC-MS measurement. LC-MS measurement was performed using Xevo G2-S Q-Tof manufactured by Waters, and reverse-phase chromatography was performed with a desalting column. A mass spectrum of positive ions was obtained by electrospray. For a mass spectrum, a spectrum of polyvalent ions was collectively converted to a molecular weight by using OpenLynx software by the MaxEnt technique, and a compound binding rate was calculated from the ratio of the signal intensity of a peak that corresponds to the molecular weight of the protein to the signal intensity of a peak that corresponds to the molecular weight of the protein conjugated with the compound.
The binding assay of the test compounds was conducted at a final concentration of 0.5 μM. A binding rate of 80% or more is rated “A”, a binding rate of 60% or more and less than 80% is rated “B”, a binding rate of 40% or more and less than 60% is rated “C”, a binding rate of 20% or more and less than 40% is rated “D”, and a binding rate of less than 20% is rated “E”. N.D.=not determined. Binding rate % is the ratio of KRAS signal intensity at the molecular weight of one molecule adduct to the sum of all the KRAS signal intensity (unbound form and adducts) in mass spectrum.
Thus, binding rate 100% means that only the one molecule adduct was observed without any unbound KRAS.

In experiment [2] the target is T1, GMPPNP-bound KRAS G12C protein and cRAF RAS-binding domain (cRAF-RBD) (Homo sapiens, UniProt P01116, G12C).
T1 construct: made in house; host or cells: E. coli
Put plainly: Inhibitory activity on interaction between KRAS G12C and cRAF (Alpha technology). It is filed as biochemical. As to conditions: GMPPNP-bound KRAS G12C incubated with compound at 25° C. for 1 hour, then cRAF-RBD, Alpha signal; read-out: IC50. As to the method:
Interaction between recombinant K-Ras4B G12C mutant protein (amino acids 1-169, SEQ ID NO:2) and cRAF RAS-binding domain (cRAF-RBD, amino acids 50-132, Jena Biosciences GmbH) was measured using Alpha technology (PerkinElmer Inc.).
Recombinant KRAS G12C protein with an N-terminal His-tag was expressed in E. coli and purified by affinity chromatography. To prepare GTP-bound form and GDP-bound form of KRAS G12C protein, 50 μM KRAS G12C protein was incubated with 1 mM GMPPNP (Guanosine-5′-[(β,γ)-imido]triphosphate, Tetralithium salt) (Jena Bioscience GmbH) and 1 mM GDP, respectively, in a loading buffer (20 mM Tris-HCl (pH 7.5), 50 mM NaCl, 1 mM DTT and 2.5 mM EDTA) for 1 hour on ice. After the incubation, MgCl2 was added to a final concentration of 10 mM, followed by incubation at room temperature for 30 minutes. The mixture was allowed to pass through a NAP-5 column to remove free nucleotides and purified, and the resultant nucleotide-bound KRAS G12C protein was used for compound evaluation.
For the measurement of the inhibitory activity of compounds on interaction between KRAS G12C and cRAF-RBD, GMPPNP-bound KRAS G12C protein was incubated with various concentrations of compound in a reaction buffer (20 mM Tris-HCl (pH 7.5), 100 mM NaCl, 1 mM MgCl2, 1 mM TCEP, 0.1% Tween 20) at 25° C. for 1 hour. After the incubation, recombinant cRAF-RBD and Alpha detection reagents were added and incubated at room temperature for 1.5 hours for binding. Interaction 5 of KRAS G12C and cRAF-RBD was monitored by measuring Alpha signal. Inhibition % was calculated using the signal from the reaction without test compound (DMSO control) as 0% inhibition and the signal from the reaction using GDP-bound KRAS G12C in place of GMPPNP-bound KRAS G12C as 100% inhibition. IC50 values were calculated from dose titration curve using curve fitting by XLfit software (IDBS).

Molecules are shown by their SMILES. pIC50: −log10 of the molar value.

Consider `C=CC(=O)Nc1ccc(C(=O)Nc2cccc(-c3cc4nc(COC)n(C)c4cc3C(F)(F)F)c2)cc1C#N` [Comparative example 2, reference compound], for which the binding rate result in experiment [1] is on record as “E (a binding rate of less than 20% is rated “E”)”. Also, in experiment [2], the pIC50 was 4.82.
Consider `CO[C@H]1CC[C@H](NC/C=C/C(=O)Nc2ccc(C(=O)c3cc(Cl)c4c(-c5cc6ncn(C)c6cc5C)cccn34)cc2C#N)CC1` [Example 65, (E)-N-(4-(1-chloro-8-(1,6-dimethyl-1H-benzo[d]imidazol-5-yl)indolizine-3-carbonyl)-2-cyanophenyl)-4-(((1r,4r)-4-methoxycyclohexyl)amino)but-2-enamide], for which, in experiment [1], the binding rate entry was “B (a binding rate of 60% or more and less than 80% is rated “B”)”. The pIC50 in experiment [2] was 6.85.
For the compound `O=C(/C=C/CN[C@H]1CC[C@H](O)CC1)Nc1ccc(C(=O)Nc2cccc(Br)c2)cn1` [Comparative example 1, N-(3-bromophenyl)-6-((E)-4-(((1r,4r)-4-hydroxycyclohexyl)amino)but-2-enamido)nicotinamide, reference compound], the binding rate result in experiment [1] was “E (a binding rate of less than 20% is rated “E”)”. For the same compound, the pIC50 in experiment [2] is 4.70.
Regarding `CO[C@H]1CC[C@H](NC/C=C/C(=O)Nc2ccc(C(=O)c3ccc4c(-c5c(C)cc6c(ncn6C)c5-c5cncnc5)cccn34)cc2C#N)CC1` [Example 69, (E)-N-(2-cyano-4-(8-(1,6-dimethyl-4-(pyrimidin-5-yl)-1H-benzo[d]imidazol-5-yl)indolizine-3-carbonyl)phenyl)-4-(((1r,4r)-4-methoxycyclohexyl)amino)but-2-enamide], the binding rate entry in experiment [1] was “B (a binding rate of 60% or more and less than 80% is rated “B”)”. In addition, the pIC50 in experiment [2] was 6.59.
Turning to `CO[C@H](C)c1nc2cc(-c3cccc(NC(=O)c4ccc(NC(=O)/C=C/CN[C@H]5CC[C@H](OC)CC5)c(C#N)c4)c3)c(C(F)(F)F)cc2n1C` [Example 23, 3-cyano-4-((E)-4-(((1r,4r)-4-methoxycyclohexyl)amino)but-2-enamido)-N-(3-(2-((R)-1-methoxyethyl)-1-methyl-6-(trifluoromethyl)-1H-benzo[d]imidazol-5-yl)phenyl)benzamide], the binding rate entry in experiment [1] is reported as “A (A binding rate of 80% or more is rated “A”)”. Moreover, the pIC50 in experiment [2] is 6.66.
On to `CO[C@H]1CC[C@H](NC/C=C/C(=O)Nc2ccc(C(=O)c3ccc4c(-c5ccc6nn(C)c(Cl)c6c5Cl)cccn34)cc2C#N)CC1` [Example 79, (E)-N-(2-cyano-4-(8-(3,4-dichloro-2-methyl-2H-indazol-5-yl)indolizine-3-carbonyl)phenyl)-4-(((1r,4r)-4-methoxycyclohexyl)amino)but-2-enamide], for which the binding rate result in experiment [1] is given as “A (A binding rate of 80% or more is rated “A”)”. In addition, in experiment [2], the pIC50 is 6.36.
Consider `CCN(CC)[C@H]1CC[C@H](NC/C=C/C(=O)Nc2ccc(C(=O)Nc3cccc(-c4c(Cl)ccc5c4cnn5C)c3)cc2C#N)CC1` [Example 12, N-(3-(5-chloro-1-methyl-1H-indazol-4-yl)phenyl)-3-cyano-4-((E)-4-(((1r,4r)-4-(diethylamino)cyclohexyl)amino)but-2-enamido)benzamide], for which the binding rate result in experiment [1] is “B (a binding rate of 60% or more and less than 80% is rated “B”)”. Moreover, the negative logarithm of the IC50 (pIC50) in experiment [2] was 6.57.
On to `C=C(C)c1c(-c2cccn3c(C(=O)c4ccc(NC(=O)/C=C/CNC(C)(C)C)c(C#N)c4)ccc23)c(C)cc2c1ncn2C` [Example 61, (E)-4-(tert-butylamino)-N-(2-cyano-4-(8-(1,6-dimethyl-4-(prop-1-en-2-yl)-1H-benzo[d]imidazol-5-yl)indolizine-3-carbonyl)phenyl)but-2-enamide], for which, in experiment [1], the binding rate result is “A (A binding rate of 80% or more is rated “A”)”. Besides, the pIC50 in experiment [2] was 6.64.
As for `CO[C@H]1CC[C@H](NC/C=C/C(=O)Nc2ccc(C(=O)c3ccc4c(-c5c(C)cc6c(ncn6C)c5-c5cccnc5)cccn34)cc2C#N)CC1` [Example 82, (E)-N-(2-cyano-4-(8-(1,6-dimethyl-4-(pyridin-3-yl)-1H-benzo[d]imidazol-5-yl)indolizine-3-carbonyl)phenyl)-4-(((1r,4r)-4-methoxycyclohexyl)amino)but-2-enamide], the binding rate entry in experiment [1] is listed as “A (A binding rate of 80% or more is rated “A”)”. For the same compound, the pIC50 in experiment [2] was 6.82.
In the case of `Cn1cnc2cc(-c3cccn4c(C(=O)c5ccc(NC(=O)/C=C/[C@H]6CCCN6)c(C#N)c5)ccc34)c(C(F)(F)F)cc21` [Example 42, (R,E)-N-(2-cyano-4-(8-(1-methyl-6-(trifluoromethyl)-1H-benzo[d]imidazol-5-yl)indolizine-3-carbonyl)phenyl)-3-(pyrrolidin-2-yl)acrylamide], the binding rate entry in experiment [1] was “D (a binding rate of 20% or more and less than 40% is rated “D”)”. Besides, the pIC50 in experiment [2] is 6.44.
For `CO[C@H]1CC[C@H](NC/C=C/C(=O)Nc2ccc(C(=O)c3c[nH]c4c(-c5cc6ncn(C)c6cc5C(F)(F)F)cccc34)c(F)c2)CC1` [Example 83, (E)-N-(3-fluoro-4-(7-(1-methyl-6-(trifluoromethyl)-1H-benzo[d]imidazol-5-yl)-1H-indole-3-carbonyl)phenyl)-4-(((1r, 4r)-4-methoxycyclohexyl)amino)but-2-enamide], the binding rate entry in experiment [1] is recorded as “A (A binding rate of 80% or more is rated “A”)”. The pIC50 in experiment [2] was 6.36.
In the same order, the values of `CCc1nc2cc(-c3cccc4c3CCN4C(=O)c3ccc(NC(=O)/C=C/CN[C@H]4CC[C@H](OC)CC4)c(C#N)c3)c(C(F)(F)F)cc2n1C` [Example 10, (E)-N-(2-cyano-4-(4-(2-ethyl-1-methyl-6-(trifluoromethyl)-1H-benzo[d]imidazol-5-yl)indoline-1-carbonyl)phenyl)-4-(((1r,4r)-4-methoxycyclohexyl)amino)but-2-enamide] are “A (A binding rate of 80% or more is rated “A”)” and 6.72.
As for `CCN(CC)[C@H]1CC[C@H](NC/C=C/C(=O)Nc2ccc(C(=O)Nc3cccc(-c4cc5nc(C)n(C)c5cc4Cl)c3)cc2F)CC1` [Example 13, N-(3-(6-chloro-1,2-dimethyl-1H-benzo[d]imidazol-5-yl)phenyl)-4-((E)-4-(((1r,4r)-4-(diethylamino)cyclohexyl)amino)but-2-enamido)-3-fluorobenzamide], the binding rate entry in experiment [1] was “B (a binding rate of 60% or more and less than 80% is rated “B”)”. For the same compound, the pIC50 in experiment [2] is 6.39.
With `Cc1cc(C(=O)c2ccc3c(-c4cc5ncn(C)c5cc4C(F)(F)F)cccn23)cc(C#N)c1NC(=O)/C=C/CNC(C)(C)C` [Example 50, (2E)-4-(tert-Butylamino)-N-(2-cyano-6-methyl-4-{8-[1-methyl-6-(trifluoromethyl)-1H-1,3-benzodiazol-5-yl]indolizine-3-carbonyl}phenyl)but-2-enamide], the binding rate entry in experiment [1] is on record as “E (a binding rate of less than 20% is rated “E”)”. The pIC50 in experiment [2] is 5.92.

Broadly, the pIC50 is the IC50 on a negative log10 scale, so that one unit is a factor of ten.
